From patent US20110152314A1, “USE OF TENATOPRAZOLE FOR THE TREATMENT OF GASTROESOPHAGEAL REFLUX DISEASE” (SIDEM PHARMA, priority 2002, published 2011)

Key:
[1] = tested on: patients suffering from erosive and/or ulcerative type reflux esophagitis; assay: Open-labeled studies in reflux esophagitis: improvement rating of subjective and objective symptoms; assay type: in vivo, human; settings: 10 mg tablet orally once a day
Protocol: Two open-labeled studies have been conducted in order to evaluate the efficacy and safety of tenatoprazole for gastroesophageal reflux disease. 22 patients in the first study and 24 patients in the second study, of more than 20 years of age, suffering from erosive and/or ulcerative type reflux esophagitis (diagnosed by endoscopy), received tablets containing enteric-coated granules with 10 mg of tenatoprazole.
[…] […], or at the withdrawal from the study, the disease stages were evaluated according to the Savary and Miller classification and the treatment was stopped when healing was confirmed. The condition was evaluated as healed when disappearance of erosion was confirmed.

[2] = tested on: patients with atypical symptoms of gastroesophageal reflux; assay: Clinical treatment of patients with atypical symptoms of gastroesophageal reflux; assay type: in vivo, human; parameters: Safety: key: +: moderate; ++: ranging from moderate to highly favorable; +++: highly favorable; settings: oral; for Evolution of symptom: key: +: moderate; ++: ranging from moderate to highly favorable; +++: highly favorable
Text: Some clinical examples are given below, which show the effects of treatment on patients suffering from gastroesophageal reflux or dyspepsia, treated by the oral administration of tenatoprazole.

[3] = patient 26, asthma, link with GERD ++, 12 weeks
[4] = patient 27, dental caries, link with GERD +, 12 weeks
[5] = patient 29, noct. cough, link with GERD +++, 7 weeks
[6] = patient 31, pharyngitis, link with GERD +, 8 weeks
[7] = patient 33, asthma, link with GERD ++, 12 weeks
[8] = patient 34, dysphonia, link with GERD ++, 4 weeks
[9] = patient 34, pharyngitis, link with GERD ++, 8 weeks
[10] = patient 36, dysphonia, link with GERD ++, 5 weeks
[11] = patient 36, noct. cough, link with GERD ++, 8 weeks
[12] = patient 44, pharyngitis, link with GERD +, 4 weeks
[13] = patient 45, pseudo-angina, link with GERD ++, 8 weeks
[14] = patient 49, pseudo-angina, link with GERD ++, 12 weeks

COc1ccc2[nH]c([S+]([O-])Cc3ncc(C)c(OC)c3C)nc2n1 (stereo not drawn) [tenatoprazole, 5-methoxy-2-[[(4-methoxy-3,5-dimethyl-2-pyridyl)methyl]sulfinyl]imidazo[4,5-b]pyridine]
Improvement rating of symptoms, patients rated A markedly improved ([1]; 1st study, 1 week): 16
Improvement rating of symptoms, patients rated B moderately improved ([1]; 1st study, 1 week): 6
Improvement rating of symptoms, patients rated C slightly improved ([1]; 1st study, 1 week): 0
Improvement rating of symptoms, patients rated D not changed ([1]; 1st study, 1 week): 3
Improvement rating of symptoms, patients rated E aggravated ([1]; 1st study, 1 week): 0
Improvement rating of symptoms, patients rated A markedly improved ([1]; 1st study, 2 weeks): 21
Improvement rating of symptoms, patients rated B moderately improved ([1]; 1st study, 2 weeks): 1
Improvement rating of symptoms, patients rated C slightly improved ([1]; 1st study, 2 weeks): 0
Improvement rating of symptoms, patients rated D not changed ([1]; 1st study, 2 weeks): 1
Improvement rating of symptoms, patients rated E aggravated ([1]; 1st study, 2 weeks): 0
Improvement rating of symptoms, patients rated A markedly improved ([1]; 1st study, 4 weeks): 23
Improvement rating of symptoms, patients rated B moderately improved ([1]; 1st study, 4 weeks): 0
Improvement rating of symptoms, patients rated C slightly improved ([1]; 1st study, 4 weeks): 1
Improvement rating of symptoms, patients rated D not changed ([1]; 1st study, 4 weeks): 0
Improvement rating of symptoms, patients rated E aggravated ([1]; 1st study, 4 weeks): 0
Improvement rating of symptoms, patients rated A markedly improved ([1]; 1st study, 6 weeks): 10
Improvement rating of symptoms, patients rated B moderately improved ([1]; 1st study, 6 weeks): 0
Improvement rating of symptoms, patients rated C slightly improved ([1]; 1st study, 6 weeks): 1
Improvement rating of symptoms, patients rated D not changed ([1]; 1st study, 6 weeks): 0
Improvement rating of symptoms, patients rated E aggravated ([1]; 1st study, 6 weeks): 0
Improvement rating of symptoms, patients rated A markedly improved ([1]; 1st study, 8 weeks): 9
Improvement rating of symptoms, patients rated B moderately improved ([1]; 1st study, 8 weeks): 0
Improvement rating of symptoms, patients rated C slightly improved ([1]; 1st study, 8 weeks): 1
Improvement rating of symptoms, patients rated D not changed ([1]; 1st study, 8 weeks): 0
Improvement rating of symptoms, patients rated E aggravated ([1]; 1st study, 8 weeks): 0
Improvement rating of symptoms, patients rated A markedly improved ([1]; 1st study, 10 weeks): 2
Improvement rating of symptoms, patients rated B moderately improved ([1]; 1st study, 10 weeks): 0
Improvement rating of symptoms, patients rated C slightly improved ([1]; 1st study, 10 weeks): 0
Improvement rating of symptoms, patients rated D not changed ([1]; 1st study, 10 weeks): 0
Improvement rating of symptoms, patients rated E aggravated ([1]; 1st study, 10 weeks): 0
Improvement rating of symptoms, patients rated A markedly improved ([1]; 1st study, final): 21
Improvement rating of symptoms, patients rated B moderately improved ([1]; 1st study, final): 0
Improvement rating of symptoms, patients rated C slightly improved ([1]; 1st study, final): 1
Improvement rating of symptoms, patients rated D not changed ([1]; 1st study, final): 0
Improvement rating of symptoms, patients rated E aggravated ([1]; 1st study, final): 0
Improvement rating of symptoms, patients rated A markedly improved ([1]; 2nd study, 1 week): 19
Improvement rating of symptoms, patients rated B moderately improved ([1]; 2nd study, 1 week): 2
Improvement rating of symptoms, patients rated C slightly improved ([1]; 2nd study, 1 week): 1
Improvement rating of symptoms, patients rated D not changed ([1]; 2nd study, 1 week): 1
Improvement rating of symptoms, patients rated E aggravated ([1]; 2nd study, 1 week): 0
Improvement rating of symptoms, patients rated A markedly improved ([1]; 2nd study, 2 weeks): 21
Improvement rating of symptoms, patients rated B moderately improved ([1]; 2nd study, 2 weeks): 1
Improvement rating of symptoms, patients rated C slightly improved ([1]; 2nd study, 2 weeks): 1
Improvement rating of symptoms, patients rated D not changed ([1]; 2nd study, 2 weeks): 0
Improvement rating of symptoms, patients rated E aggravated ([1]; 2nd study, 2 weeks): 0
Improvement rating of symptoms, patients rated A markedly improved ([1]; 2nd study, 4 weeks): 20
Improvement rating of symptoms, patients rated B moderately improved ([1]; 2nd study, 4 weeks): 1
Improvement rating of symptoms, patients rated C slightly improved ([1]; 2nd study, 4 weeks): 1
Improvement rating of symptoms, patients rated D not changed ([1]; 2nd study, 4 weeks): 0
Improvement rating of symptoms, patients rated E aggravated ([1]; 2nd study, 4 weeks): 0
Improvement rating of symptoms, patients rated A markedly improved ([1]; 2nd study, 6 weeks): 10
Improvement rating of symptoms, patients rated B moderately improved ([1]; 2nd study, 6 weeks): 0
Improvement rating of symptoms, patients rated C slightly improved ([1]; 2nd study, 6 weeks): 1
Improvement rating of symptoms, patients rated D not changed ([1]; 2nd study, 6 weeks): 0
Improvement rating of symptoms, patients rated E aggravated ([1]; 2nd study, 6 weeks): 0
Improvement rating of symptoms, patients rated A markedly improved ([1]; 2nd study, 8 weeks): 10
Improvement rating of symptoms, patients rated B moderately improved ([1]; 2nd study, 8 weeks): 1
Improvement rating of symptoms, patients rated C slightly improved ([1]; 2nd study, 8 weeks): 0
Improvement rating of symptoms, patients rated D not changed ([1]; 2nd study, 8 weeks): 0
Improvement rating of symptoms, patients rated E aggravated ([1]; 2nd study, 8 weeks): 0
Improvement rating of symptoms, patients rated A markedly improved ([1]; 2nd study, 10 weeks): 0
Improvement rating of symptoms, patients rated B moderately improved ([1]; 2nd study, 10 weeks): 1
Improvement rating of symptoms, patients rated C slightly improved ([1]; 2nd study, 10 weeks): 0
Improvement rating of symptoms, patients rated D not changed ([1]; 2nd study, 10 weeks): 0
Improvement rating of symptoms, patients rated E aggravated ([1]; 2nd study, 10 weeks): 0
Improvement rating of symptoms, patients rated A markedly improved ([1]; 2nd study, 12 weeks): 0
Improvement rating of symptoms, patients rated B moderately improved ([1]; 2nd study, 12 weeks): 1
Improvement rating of symptoms, patients rated C slightly improved ([1]; 2nd study, 12 weeks): 0
Improvement rating of symptoms, patients rated D not changed ([1]; 2nd study, 12 weeks): 0
Improvement rating of symptoms, patients rated E aggravated ([1]; 2nd study, 12 weeks): 0
Improvement rating of symptoms, patients rated A markedly improved ([1]; 2nd study, final): 19
Improvement rating of symptoms, patients rated B moderately improved ([1]; 2nd study, final): 2
Improvement rating of symptoms, patients rated C slightly improved ([1]; 2nd study, final): 0
Improvement rating of symptoms, patients rated D not changed ([1]; 2nd study, final): 0
Improvement rating of symptoms, patients rated E aggravated ([1]; 2nd study, final): 0
Evolution of symptom [2, 3]: +++
Safety [2, 3]: +++
Evolution of symptom [2, 4]: 0
Safety [2, 4]: ++
Evolution of symptom [2, 5]: +++
Safety [2, 5]: +++
Evolution of symptom [2, 6]: +
Safety [2, 6]: +++
Evolution of symptom [2, 7]: ++
Safety [2, 7]: +++
Evolution of symptom [2, 8]: ++
Safety [2, 8]: +++
Evolution of symptom [2, 9]: ++
Safety [2, 9]: +++
Evolution of symptom [2, 10]: +++
Safety [2, 10]: +++
Evolution of symptom [2, 11]: +++
Safety [2, 11]: ++
Evolution of symptom [2, 12]: ++
Safety [2, 12]: +++
Evolution of symptom [2, 13]: +++
Safety [2, 13]: +++
Evolution of symptom [2, 14]: +++
Safety [2, 14]: +++
